system: human colon tumour cell line HT29; experiment: Cellular Assay (phosphohistone H3 Ser10 mitotic marker, HT29); type: cell-based; details: HT-29, 24 h, HT29 cells, read-out: IC50 (cellular assay, phosphohistone H3)
Experimental: Chromosome condensation in mitosis is accompanied by phosphorylation of histone H3 on serine 10.
After 24 hours, cells were fixed in 3.7% (v/v) formaldehyde then permeabilised and blocked for 10 minutes in 100 μl 0.5% (v/v) Triton X-100, 1% (w/v) bovine serum albumin (BSA) in phosphate buffered saline (PBS). […] The raw assay data were analysed by non-linear regression analysis and used to determine an IC50 value for each compound.

`CCN1CCC(NC(=O)c2cc(F)c(Nc3ncc4c(n3)N(C3CCCC3)CC3(CC3)C(=O)N4C)cc2F)CC1` [Example 395, 4-(9′-cyclopentyl-5′-methyl-6′-oxo-5′,6′,8′,9′-tetrahydrospiro[cyclopropane-1,7′-pyrimido[5,4-b][1,4]diazepine]-2′-ylamino)-N-(1-ethyl-4-piperidyl)-2,5-difluoro-benzamide] and `CN1CCC(NC(=O)c2cc(F)c(Nc3ncc4c(n3)N(C3CCCC3)CC3(CC3)C(=O)N4C)cc2F)CC1` [Example 396, 4-(9′-cyclopentyl-5′-methyl-6′-oxo-5′,6′,8′,9′-tetrahydrospiro[cyclopropane-1,7′-pyrimido[5,4-b][1,4]diazepine]-2′-ylamino)-2,5-difluoro-N-(1-methyl-4-piperidyl)benzamide] cannot be ordered by IC50: less than 300 nM for the first, less than 300 nM for the second.

`CN1C(=O)C2(CC2)CN(C2CCCC2)c2nc(Nc3cc(F)c(C(=O)NCCN4CCCC4)cc3F)ncc21` [Example 397, 4-(9′-cyclopentyl-5′-methyl-6′-oxo-5′,6′,8′,9′-tetrahydrospiro[cyclopropane-1,7′-pyrimido[5,4-b][1,4]diazepine]-2′-ylamino)-2,5-difluoro-N-(2-pyrrolidin-1-ylethyl)benzamide] and `COc1cc(C(=O)NCCN2CCCC2)c(F)cc1Nc1ncc2c(n1)N(C1CCCC1)CC1(CC1)C(=O)N2C` [Example 398, 4-(9′-cyclopentyl-5′-methyl-6′-oxo-5′,6′,8′,9′-tetrahydrospiro[cyclopropane-1,7′-pyrimido[5,4-b][1,4]diazepine]-2′-ylamino)-2-fluoro-5-methoxy-N-(2-pyrrolidin-1-ylethyl)benzamide] cannot be ordered by IC50: less than 300 nM for the first, less than 300 nM for the second.

`COc1cc(C(=O)N[C@@H]2CCN(C)C2)c(F)cc1Nc1ncc2c(n1)N(C1CCCC1)CC1(CC1)C(=O)N2C` [Example 399, 4-(9′-cyclopentyl-5′-methyl-6′-oxo-5′,6′,8′,9′-tetrahydrospiro[cyclopropane-1,7′-pyrimido[5,4-b][1,4]diazepine]-2′-ylamino)-2-fluoro-5-methoxy-N-[(3R)-1-methylpyrrolidin-3-yl]benzamide] and `CN1CC[C@@H](NC(=O)c2cc(F)c(Nc3ncc4c(n3)N(C3CCCC3)CC3(CC3)C(=O)N4C)cc2F)C1` [Example 400, 4-(9′-cyclopentyl-5′-methyl-6′-oxo-5′,6′,8′,9′-tetrahydrospiro[cyclopropane-1,7′-pyrimido[5,4-b][1,4]diazepine]-2′-ylamino)-2,5-difluoro-N-[(3R)-1-methylpyrrolidin-3-yl]benzamide] cannot be ordered by IC50: less than 300 nM for the first, less than 300 nM for the second.

`COc1cc(C(=O)NCC(C)(C)CN2CCCC2)ccc1Nc1ncc2c(n1)N(C1CCCC1)CC1(CC1)C(=O)N2C` [Example 401, 4-(9′-cyclopentyl-5′-methyl-6′-oxo-5′,6′,8′,9′-tetrahydrospiro[cyclopropane-1,7′-pyrimido[5,4-b][1,4]diazepine]-2′-ylamino)-N-(2,2-dimethyl-3-pyrrolidin-1-yl-propyl)-3-methoxy-benzamide] and `COc1cc(C(=O)NC2CCN(C)CC2)ccc1Nc1ncc2c(n1)N(C1CCCC1)CC1(CCCC1)C(=O)N2C` [Example 409, 4-(9′-cyclopentyl-5′-methyl-6′-oxo-5′,6′,8′,9′-tetrahydrospiro[cyclopentane-1,7′-pyrimido[5,4-b][1,4]diazepine]-2′-ylamino)-3-methoxy-N-(1-methylpiperidin-4-yl)benzamide] cannot be ordered by IC50: less than 300 nM for the first, less than 300 nM for the second.

`CN1C(=O)C2(CC2)CN(C2CCCC2)c2nc(Nc3ccc(C(=O)NC4C[C@H]5CCC[C@@H](C4)N5C)cc3Cl)ncc21` (stereo partly drawn) [Example 402, 3-chloro-4-(9′-cyclopentyl-5′-methyl-6′-oxo-5′,6′,8′,9′-tetrahydrospiro[cyclopropane-1,7′-pyrimido[5,4-b][1,4]diazepine]-2′-ylamino)-N-[(1S,5R)-9-methyl-9-azabicyclo[3.3.1]non-7-yl]benzamide] and `COc1cc(C(=O)NC2C[C@H]3CCC[C@@H](C2)N3C)c(F)cc1Nc1ncc2c(n1)N(C1CCCC1)CC1(CC1)C(=O)N2C` (stereo partly drawn) [Example 404, 4-(9′-cyclopentyl-5′-methyl-6′-oxo-5′,6′,8′,9′-tetrahydrospiro[cyclopropane-1,7′-pyrimido[5,4-b][1,4]diazepine]-2′-ylamino)-2-fluoro-5-methoxy-N-[(1S,5R)-9-methyl-9-azabicyclo[3.3.1]non-3-yl]benzamide] cannot be ordered by IC50: less than 300 nM for the first, less than 300 nM for the second.

`COc1cc(C(=O)NCC2(CN3CCCC3)CC2)c(F)cc1Nc1ncc2c(n1)N(C1CCCC1)CC1(CC1)C(=O)N2C` [Example 405, 4-(9′-cyclopentyl-5′-methyl-6′-oxo-5′,6′,8′,9′-tetrahydrospiro[cyclopropane-1,7′-pyrimido[5,4-b][1,4]diazepine]-2′-ylamino)-2-fluoro-5-methoxy-N-[[1-(pyrrolidin-1-ylmethyl)cyclopropyl]methyl]benzamide] and `COc1cc(C(=O)NCC2(CN3CCCC3)CC2)c(F)cc1Nc1ncc2c(n1)N(C1CCCCC1)CCC(=O)N2C` [Example 419, 4-[(2-cyclohexyl-6-methyl-5-oxo-2,6,9,11-tetrazabicyclo[5.4.0]undeca-7,9,11-trien-10-yl)amino]-2-fluoro-5-methoxy-N-[[1-(pyrrolidin-1-ylmethyl)cyclopropyl]methyl]benzamide] cannot be ordered by IC50: less than 1000 nM for the first, less than 1000 nM for the second.

`CCN1CCC(NC(=O)c2ccc(Nc3ncc4c(n3)N(C3CCCC3)CC3(CC3)C(=O)N4C)c(F)c2)CC1` [Example 406, 4-(9′-cyclopentyl-5′-methyl-6′-oxo-5′,6′,8′,9′-tetrahydrospiro[cyclopropane-1,7′-pyrimido[5,4-b][1,4]diazepine]-2′-ylamino)-N-(1-ethyl-4-piperidyl)-3-fluoro-benzamide] and `CCN1CCC(NC(=O)c2cc(OC)c(Nc3ncc4c(n3)N(C3CCCC3)CC3(CC3)C(=O)N4C)cc2F)CC1` [Example 407, 4-(9′-cyclopentyl-5′-methyl-6′-oxo-5′,6′,8′,9′-tetrahydrospiro[cyclopropane-1,7′-pyrimido[5,4-b][1,4]diazepine]-2′-ylamino)-N-(1-ethyl-4-piperidyl)-2-fluoro-5-methoxy-benzamide] cannot be ordered by IC50: less than 300 nM for the first, less than 300 nM for the second.

`CN1CCC(NC(=O)c2ccc(Nc3ncc4c(n3)N(C3CCCC3)CC3(CC3)C(=O)N4C)c3c2OCO3)CC1` [Example 408, 7-(9′-cyclopentyl-5′-methyl-6′-oxo-5′,6′,8′,9′-tetrahydrospiro[cyclopropane-1,7′-pyrimido[5,4-b][1,4]diazepine]-2′-ylamino)-N-(1-methyl-4-piperidyl)benzo[1,3]dioxole-4-carboxamide] and `CN1CCC(NC(=O)c2cc(F)c(Nc3ncc4c(n3)N(C3CCCCC3)CCC(=O)N4C)cc2Cl)CC1` [Example 411, 2-chloro-4-[(2-cyclohexyl-6-methyl-5-oxo-2,6,9,11-tetrazabicyclo[5.4.0]undeca-7,9,11-trien-10-yl)amino]-5-fluoro-N-(1-methyl-4-piperidyl)benzamide] cannot be ordered by IC50: less than 300 nM for the first, less than 1000 nM for the second.

`CN1CCC(NC(=O)c2cc(F)c(Nc3ncc4c(n3)N(C3CCCCC3)CCC(=O)N4C)cc2F)CC1` [Example 412, 4-[(2-cyclohexyl-6-methyl-5-oxo-2,6,9,11-tetrazabicyclo[5.4.0]undeca-7,9,11-trien-10-yl)amino]-2,5-difluoro-N-(1-methyl-4-piperidyl)benzamide] and `CN1CC[C@@H](NC(=O)c2cc(F)c(Nc3ncc4c(n3)N(C3CCCCC3)CCC(=O)N4C)cc2F)C1` [Example 414, 4-[(2-cyclohexyl-6-methyl-5-oxo-2,6,9,11-tetrazabicyclo[5.4.0]undeca-7,9,11-trien-10-yl)amino]-2,5-difluoro-N-[(3R)-1-methylpyrrolidin-3-yl]benzamide] cannot be ordered by IC50: less than 300 nM for the first, less than 300 nM for the second.

`CN1C(=O)CCN(C2CCCCC2)c2nc(Nc3cc(F)c(C(=O)NCC4(CN5CCCC5)CC4)cc3F)ncc21` [Example 413, 4-[(2-cyclohexyl-6-methyl-5-oxo-2,6,9,11-tetrazabicyclo[5.4.0]undeca-7,9,11-trien-10-yl)amino]-2,5-difluoro-N-[[1-(pyrrolidin-1-ylmethyl)cyclopropyl]methyl]benzamide] and `CN1C(=O)CCN(C2CCCCC2)c2nc(Nc3cc(F)c(C(=O)NCCN4CCCC4)cc3F)ncc21` [Example 416, 4-[(2-cyclohexyl-6-methyl-5-oxo-2,6,9,11-tetrazabicyclo[5.4.0]undeca-7,9,11-trien-10-yl)amino]-2,5-difluoro-N-(2-pyrrolidin-1-ylethyl)benzamide] cannot be ordered by IC50: less than 1000 nM for the first, less than 1000 nM for the second.

`CCN1CCC(NC(=O)c2cc(F)c(Nc3ncc4c(n3)N(C3CCCCC3)CCC(=O)N4C)cc2F)CC1` [Example 415, 4-[(2-cyclohexyl-6-methyl-5-oxo-2,6,9,11-tetrazabicyclo[5.4.0]undeca-7,9,11-trien-10-yl)amino]-N-(1-ethyl-4-piperidyl)-2,5-difluoro-benzamide] and `COc1cc(C(=O)N[C@@H]2CCN(C)C2)c(F)cc1Nc1ncc2c(n1)N(C1CCCCC1)CCC(=O)N2C` [Example 420, 4-[(2-cyclohexyl-6-methyl-5-oxo-2,6,9,11-tetrazabicyclo[5.4.0]undeca-7,9,11-trien-10-yl)amino]-2-fluoro-5-methoxy-N-[(3R)-1-methylpyrrolidin-3-yl]benzamide] cannot be ordered by IC50: less than 300 nM for the first, less than 300 nM for the second.

`CN1C(=O)CCN(C2CCCCC2)c2nc(Nc3ccc(C(=O)NC4C[C@H]5CCC[C@@H](C4)N5C)cc3F)ncc21` (stereo partly drawn) [Example 417, 4-[(2-cyclohexyl-6-methyl-5-oxo-2,6,9,11-tetrazabicyclo[5.4.0]undeca-7,9,11-trien-10-yl)amino]-3-fluoro-N-[(1S,5R)-9-methyl-9-azabicyclo[3.3.1]non-7-yl]benzamide] and `COc1cc(C(=O)NC2C[C@H]3CCC[C@@H](C2)N3C)ccc1Nc1ncc2c(n1)N(C1CCCCC1)CCC(=O)N2C` (stereo partly drawn) [Example 418, 4-[(2-cyclohexyl-6-methyl-5-oxo-2,6,9,11-tetrazabicyclo[5.4.0]undeca-7,9,11-trien-10-yl)amino]-3-methoxy-N-[(1R,5S)-9-methyl-9-azabicyclo[3.3.1]non-7-yl]benzamide] cannot be ordered by IC50: less than 300 nM for the first, less than 300 nM for the second.

In the case of `COc1cc(C(=O)N[C@@H]2CCN(C)C2)ccc1Nc1ncc2c(n1)N(C1CCCCC1)CCC(=O)N2C` [Example 421, 4-[(2-cyclohexyl-6-methyl-5-oxo-2,6,9,11-tetrazabicyclo[5.4.0]undeca-7,9,11-trien-10-yl)amino]-3-methoxy-N-[(3R)-1-methylpyrrolidin-3-yl]benzamide], the IC50 is reported as less than 300 nM.

Source: patent US7709471B2, “Compounds” (AstraZeneca AB, priority 2006, dated 2010)
